Source: patent publication US20230165973A1, “COMPOSITIONS AND METHODS FOR DELIVERING MESSENGER RNA” (ARBUTUS BIOPHARMA CORPORATION, priority 2013, published 2023)
Where “and” joins values, the source holds several entries; their conditions need not be identical. Identical values can stand only once.

Key:
[1] = Reproducibility of lipid particle formulation; format: physicochemical; conditions: multiple mLuc LNP formulations; lipid stock 8.3-19.0 mM total lipid
Experimental: Two aminolipids were selected to examine the reproducibility of lipid particle formulation. The benchmark dilinoleyl aminolipid MC3 was compared to the short trialkyl lipid 13-B43.
Multiple formulations were made, using the following composition (expressed as molar percentages): PEG-lipid (PEG2000-C-DMA) (1.6 mol %); amino lipid (54.6 mol %); cholesterol (32.8 mol %); and DSPC (10.9 mol %), according to the general procedures described above. The lipid stock was prepared in ethanol (ranging from 8.3-19.0 mM total lipid). The mRNA stock was prepared at 0.366 mg/mL in 40 mM EDTA. Buffer exchange was then performed via overnight bag dialysis against 10× volume of PBS. Samples were then concentrated to […] mRNA by centrifugation in Vivaspin-20 units (MWCO 100 k) from GE Healthcare. The LNP were then sterile filtered. Concentration of the LNP was determined using RiboGreen and a Varian Cary Eclipse Fluorimeter. Particle size and polydispersity were determined using a Malvern Nano Series Zetasizer.

[2] = Formulability: LNP particle size, polydispersity and mRNA encapsulation (Example 2); format: physicochemical; conditions: mLuc LNP with the aminolipid at 54.6 mol %; 12.6 mM lipid stock
Experimental: (§1) The experiments described in this Example 2 used a firefly luciferase mRNA (“mLuc”), fully modified with pseudouridine and 5-methylcytidine replacing uridine and cytidine respectively. The LNP formulation used in these studies have the following general lipid composition (molar ratios): PEG-lipid (PEG2000-C-DMA (1.6 mol %); appropriate aminolipid (54.6 mol %); cholesterol (32.8 mol %); and DSPC (10.9 mol %). A lipid stock was prepared with the appropriate lipids dissolved in ethanol (12.6 mM). The mLuc stock was made up in a 40 mM EDTA buffer at 0.366 mg/mL in 40 mM EDTA. The two stocks were combined using the Jeffs et al method (Pharm. Research (2005), 22(3), pages 362-372), blending in a t-connector and diluted into Phosphate Buffered Saline, pH 7.4. Buffer exchange was then performed via overnight bag dialysis against 10× volume of PBS. After dialysis, LNP were concentrated by centrifugation in Vivaspin-6 or Vivaspin-20 units (MWCO 100 k) from GE Healthcare. The LNP were then sterile filtered (0.2 μm filter). Concentration of the LNP was determined using RiboGreen and a Varian Cary Eclipse Fluorimeter. Particle size and polydispersity were determined using a Malvern Nano Series Zetasizer.
The effect of the choice of aminolipid on parameters such as formulability and potency in the mRNA formulations was examined. As benchmarks, we selected the dilinoleyl lipids 5, 6, 7, and 8. […] We also selected a range of lipids with hydrophobic domains consisting of multiple (3 or 4) alkyl chains; 10, 9, 11, 13, 14, 17, and 18. Formulations were prepared as described above, using a 12.6 mM lipid stock.

[3] = tested on: naïve Balb/C mice; experiment: Luciferase liver model, aminolipid potency comparison (Example 2); format: in vivo, mouse; conditions: intravenously, 0.5 mg/kg total mRNA, six hours following injection
Experimental: as §1
LNP containing a luciferase mRNA payload were dosed at 0.5 mg/kg in naïve Balb/C mice (n=3). Six hours following injection, the mice were euthanized and livers were removed, weighed, and placed in lysing matrix tubes (containing one ceramic bead) on ice. PBS treatment groups were included to determine the background level of quenching of luciferase activity caused by the tissue homogenate in the Luciferase assay. Following collection, the tissues from these PBS treated animals were spiked with 50 μL of 100 ng/mL Luciferase solution in 1×CCLR (Cell Culture Lysis Reagent). Tissues were stored at −80° C. until Luciferase assay was performed.
(§2) All sample processing procedures were performed on ice. Tissues were homogenized and centrifuged in an Eppendorf microfuge at 3000 rpm & 4° C. for 10 minutes. After centrifugation, 20 μL of homogenate was aliquoted in duplicate into a white 96-well luminometer plate. Firefly luciferase […] was then analyzed on the EG&G Berthold Microplate Luminometer LB using the Promega Luciferase Assay System. The luciferase activity within the wells was determined by comparing the resulting RLUs for the homogenates to a standard curve prepared from 20 μL of firefly luciferase. A quenching factor was assigned to each tissue to control for natural quenching from the homogenates. This was determined using luciferase-spiked tissue from PBS treated mice.
The various formulations described were also assessed for potency in the mouse liver model. As an additional control, the use of the commercially available delivery reagent TransIT (Mirus) has been described in the literature for delivery of mRNA. A 0.05 mg/mL solution of TransIT-mRNA complex was prepared as follows. 50 μL of 1 mg/mL mRNA was added to 860 μL of DMEM, and to this solution the reagents from the TransIT-mRNA kit (Mirus) were added. In sequential order, 35 μL of the mRNA Boost reagent was added followed by 55 μL of the TransIT-mRNA reagent. The final solution was then incubated for 2-5 minutes before intravenous or intraperitoneal dosing.
All formulations were administered intravenously at a dose of 0.5 mg/kg total mRNA.

[4] = tested on: Balb/C mice; experiment: Luciferase assay of Example 1 with tetraalkyl lipids, liver (Example 8); format: in vivo, mouse; conditions: particles comprising the lipid, assay described in Example 1
Experimental: In the liver model, LNP were dosed at 0.5 mg/kg in the naïve Balb/C mice (n=5). Six hours following injection, the mice were euthanized and the livers were removed, weighed, and placed in lysing matrix tubes (containing one ceramic bead) on ice.
as §2, with “rpm at” for “rpm &”, “resulting Relative Light Units (RLUs)” for “resulting RLUs”
In particular, the tetraalkyl lipids mediated an enhanced level of delivery of luciferase mRNA to living cells than the established benchmark dialkyl lipid 8 shown in Table 8.

| Compound | % Encaps of mLuc [1] | Particle size [1] | Polydispersity Index [1] | % Encaps (Percentage Encapsulation) [2] | PDI (polydispersity index) [2] | Zavg (average lipid particle diameter) [2] | Luciferase protein in ng per g of liver [3] | Activity in luciferase assay [4] |
| --- | --- | --- | --- | --- | --- | --- | --- | --- |
| CCCCC/C=C\C/C=C\CCCCCCCCC(CCCCCCCC/C=C\C/C=C\CCCCC)OC(=O)CCCN(C)C [Compound 7, (6Z,9Z,28Z,31Z)-heptatriaconta-6,9,28,31-tetraen-19-yl 4-(dimethylamino)butanoate] | 56% and 63% and 49% and 50% and 69% and 52% | 134 nm and 151 nm and 158 nm and 119 nm | 0.11 and 0.07 and 0.08 and 0.14 and 0.12 | 50% | 0.11 | 158 nm | 369.85 ng per g of liver | – |
| CCCCC/C=C\C/C=C\CCCCCCCCC(CCCCCCCC/C=C\C/C=C\CCCCC)OCCCN(C)C [Compound 8] | – | – | – | 57% | 0.13 | 144 nm | 264.90 ng per g of liver | 774,159 pg/g liver tissue |
| CCCCC/C=C\CCCC(CCC/C=C\CCCCC)C(CCC/C=C\CCCCC)OC(=O)CCCN(C)C (stereo not drawn) [Compound 9] | – | – | – | 62% | 0.06 | 95 nm | 968.83 ng per g of liver | – |
| CCCCC/C=C\C/C=C\CCCCCCCCC(OC(=O)CCCCN(C)CC)C(O)(CCCCCCCC/C=C\C/C=C\CCCCC)CCCCCCCC/C=C\C/C=C\CCCCC (stereo not drawn) [Compound 10, (6Z,9Z,29Z,32Z)-20-hydroxy-20-((9Z,12Z)-octadeca-9,12-dienyl)octatriaconta-6,9,29,32-tetraen-19-yl 5-(ethyl(methyl)amino)pentanoate] | – | – | – | – | – | – | 203.47 ng per g of liver | – |
| CCC/C=C\CCC(CC/C=C\CCC)CC(OC(=O)CCCCN(C)C)C(CC/C=C\CCC)CC/C=C\CCC (stereo not drawn) [Compound 18] | – | – | – | 88% | 0.08 | 117 nm | 1388.39 ng per g of liver | – |
| CCCCC/C=C\CCCC(CCC/C=C\CCCCC)C(CC/C=C\CCCCC)OC(=O)CCCCN(C)C (stereo not drawn) [Compound 19] | – | – | – | 78% | 0.10 | 138 nm | – | – |
| CCCCCCCCC(CCCCCC)CC(CC(CCCCCC)CCCCCCCC)OC(=O)CCCCN(C)C (stereo not drawn) [Compound 35, 9,13-dihexylhenicosan-11-yl 5-(dimethylamino)pentanoate] | – | – | – | – | – | – | – | 1,412,464 pg/g liver tissue |
| CCCCCCCCC(CCCCCC)CC(CC(CCCCCC)CCCCCCCC)OC(=O)CCCCCN(C)C (stereo not drawn) [Compound 37, 9,13-dihexylhenicosan-11-yl 6-(dimethylamino)hexanoate] | – | – | – | – | – | – | – | 2,228,526 pg/g liver tissue |
| CCCCC/C=C\CCCC(CCC/C=C\CCCCC)C(CC(CCCC)CCCCCC)OC(=O)CCCCN(C)C (stereo not drawn) [Compound 43, (Z)-7-butyl-10-((Z)-dec-4-en-1-yl)icos-14-en-9-yl 5-(dimethylamino)pentanoate] | – | – | – | – | – | – | – | 919,590 pg/g liver tissue |
